Common to all, as to type: cell-based
In assay [1] the target is 5-hydroxytryptamine receptor 2A (Homo sapiens, UniProt P28223). Nature of the assay: (§1) Radioligand Binding Assay: The ability of the compounds to bind to the 5-HT2A, D3 and D2 receptors was determined using radioligand binding to cloned receptors selectively expressed in HEK-293 EBNA cells.
A further assay addresses D(2) dopamine receptor (Homo sapiens, UniProt P14416). The description is as §1.
Another assay has as its target D(3) dopamine receptor (Homo sapiens, UniProt P35462). Described as §1.

In ChEMBL document CHEMBL3639183, “Anellated pyridine compounds” (2013) one finds Ki data, which are given here for one molecule.

Chain of 5-hydroxytryptamine receptor 2A (P28223 whole entry): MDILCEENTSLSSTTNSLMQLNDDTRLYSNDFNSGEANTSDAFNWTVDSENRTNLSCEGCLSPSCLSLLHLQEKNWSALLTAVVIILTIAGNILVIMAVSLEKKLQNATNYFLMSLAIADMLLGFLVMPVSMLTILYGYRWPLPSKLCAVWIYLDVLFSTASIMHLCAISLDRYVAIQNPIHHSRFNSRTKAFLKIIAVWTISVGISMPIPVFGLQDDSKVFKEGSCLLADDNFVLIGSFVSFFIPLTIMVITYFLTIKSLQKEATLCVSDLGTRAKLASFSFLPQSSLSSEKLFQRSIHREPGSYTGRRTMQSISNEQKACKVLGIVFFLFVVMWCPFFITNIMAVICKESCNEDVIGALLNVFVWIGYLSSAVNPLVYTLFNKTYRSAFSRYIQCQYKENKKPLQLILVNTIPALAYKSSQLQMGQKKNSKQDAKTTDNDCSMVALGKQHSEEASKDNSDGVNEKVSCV
Chain of D(2) dopamine receptor (P14416 whole entry): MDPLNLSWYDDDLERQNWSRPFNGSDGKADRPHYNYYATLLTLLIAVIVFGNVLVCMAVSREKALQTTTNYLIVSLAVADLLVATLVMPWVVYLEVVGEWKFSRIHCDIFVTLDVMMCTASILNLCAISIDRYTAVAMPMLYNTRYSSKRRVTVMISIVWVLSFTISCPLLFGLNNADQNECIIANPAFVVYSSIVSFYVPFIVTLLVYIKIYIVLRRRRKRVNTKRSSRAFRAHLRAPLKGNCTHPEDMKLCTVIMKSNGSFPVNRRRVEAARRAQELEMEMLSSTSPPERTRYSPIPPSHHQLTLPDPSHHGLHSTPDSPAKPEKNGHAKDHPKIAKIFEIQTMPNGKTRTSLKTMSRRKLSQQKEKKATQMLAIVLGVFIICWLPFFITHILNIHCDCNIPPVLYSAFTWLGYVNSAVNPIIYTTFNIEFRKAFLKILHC
Chain of D(3) dopamine receptor (P35462 whole entry): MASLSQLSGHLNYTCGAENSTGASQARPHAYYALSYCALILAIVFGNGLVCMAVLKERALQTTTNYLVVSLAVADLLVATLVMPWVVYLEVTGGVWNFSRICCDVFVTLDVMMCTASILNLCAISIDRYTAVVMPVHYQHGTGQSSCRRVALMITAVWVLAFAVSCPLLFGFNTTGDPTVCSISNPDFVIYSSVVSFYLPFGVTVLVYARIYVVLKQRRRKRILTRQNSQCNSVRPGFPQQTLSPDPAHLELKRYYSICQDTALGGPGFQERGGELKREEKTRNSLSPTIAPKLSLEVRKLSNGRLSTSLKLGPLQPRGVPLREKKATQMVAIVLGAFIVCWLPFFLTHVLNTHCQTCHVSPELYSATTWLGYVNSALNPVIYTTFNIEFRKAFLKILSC

As for `CC(C)(O)C(=O)N[C@H]1CC[C@H](CCN2CCN(c3nccc4c3CCO4)CC2)CC1`, the Ki in assay [1] turned out to be 7.82 nM; at D(2) dopamine receptor, 1260 nM; on D(3) dopamine receptor it was 195 nM.
